Assay results taken from BindingDB's records for PubMed 1352553 (University of North Carolina, 1992).
Several values for one entry are separate records, joined by “and”; a condition that tells them apart may be missing. Identical values can stand only once.

How the values were obtained:
[1] = molecular target: Alpha-2C adrenergic receptor (Rattus norvegicus, UniProt P22086)
Adenylate cyclase type 3 = Adenylate cyclase type 3 (Rattus norvegicus, UniProt P21932)
[2] = molecular target: Arginine vasopressin-induced protein 1 (Rattus norvegicus, UniProt Q8VDA6)
[3] = molecular target: Cholecystokinin receptor type A (Rattus norvegicus, UniProt P30551)
Chain of Cholecystokinin receptor type A (P30551 whole entry): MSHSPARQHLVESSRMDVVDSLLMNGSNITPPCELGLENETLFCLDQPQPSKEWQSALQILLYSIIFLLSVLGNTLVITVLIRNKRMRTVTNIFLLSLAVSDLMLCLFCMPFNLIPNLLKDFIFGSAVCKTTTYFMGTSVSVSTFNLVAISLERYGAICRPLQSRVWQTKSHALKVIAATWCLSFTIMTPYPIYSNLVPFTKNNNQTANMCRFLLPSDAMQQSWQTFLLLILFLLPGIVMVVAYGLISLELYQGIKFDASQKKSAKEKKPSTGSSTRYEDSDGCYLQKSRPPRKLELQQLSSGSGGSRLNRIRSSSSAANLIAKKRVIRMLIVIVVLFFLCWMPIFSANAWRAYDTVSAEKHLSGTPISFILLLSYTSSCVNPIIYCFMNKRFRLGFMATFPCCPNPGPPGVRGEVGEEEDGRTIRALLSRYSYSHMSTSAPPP

5'-nucleotidase = 5'-nucleotidase (Rattus norvegicus, UniProt P21588)
[4] = molecular target: Norepinephrine transporter (Rattus norvegicus, UniProt Q9JIA2)
Protachykinin-1 = Protachykinin-1 (Rattus norvegicus, UniProt P06767)
[5] = molecular target: Glycine amidinotransferase, mitochondrial (Rattus norvegicus, UniProt P50442)
Chain of Glycine amidinotransferase, mitochondrial (P50442 whole entry): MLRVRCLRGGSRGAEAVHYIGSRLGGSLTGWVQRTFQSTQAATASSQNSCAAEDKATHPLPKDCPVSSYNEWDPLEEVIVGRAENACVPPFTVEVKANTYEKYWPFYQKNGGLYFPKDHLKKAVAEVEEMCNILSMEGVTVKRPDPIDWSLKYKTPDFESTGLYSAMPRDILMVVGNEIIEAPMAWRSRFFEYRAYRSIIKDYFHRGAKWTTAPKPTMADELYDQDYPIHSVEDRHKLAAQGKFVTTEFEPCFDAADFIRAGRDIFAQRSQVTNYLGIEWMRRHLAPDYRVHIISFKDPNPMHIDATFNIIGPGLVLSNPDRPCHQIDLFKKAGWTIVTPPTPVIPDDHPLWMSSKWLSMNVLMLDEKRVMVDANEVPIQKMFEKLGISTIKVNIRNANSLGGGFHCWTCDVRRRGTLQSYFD

Somatostatin = Somatostatin (Rattus norvegicus, UniProt P60042)
[6] = molecular target: Phosphatidylinositol 3,4,5-trisphosphate 5-phosphatase 2 (Rattus norvegicus, UniProt Q9WVR3)
Chain of Phosphatidylinositol 3,4,5-trisphosphate 5-phosphatase 2 (Q9WVR3 whole entry): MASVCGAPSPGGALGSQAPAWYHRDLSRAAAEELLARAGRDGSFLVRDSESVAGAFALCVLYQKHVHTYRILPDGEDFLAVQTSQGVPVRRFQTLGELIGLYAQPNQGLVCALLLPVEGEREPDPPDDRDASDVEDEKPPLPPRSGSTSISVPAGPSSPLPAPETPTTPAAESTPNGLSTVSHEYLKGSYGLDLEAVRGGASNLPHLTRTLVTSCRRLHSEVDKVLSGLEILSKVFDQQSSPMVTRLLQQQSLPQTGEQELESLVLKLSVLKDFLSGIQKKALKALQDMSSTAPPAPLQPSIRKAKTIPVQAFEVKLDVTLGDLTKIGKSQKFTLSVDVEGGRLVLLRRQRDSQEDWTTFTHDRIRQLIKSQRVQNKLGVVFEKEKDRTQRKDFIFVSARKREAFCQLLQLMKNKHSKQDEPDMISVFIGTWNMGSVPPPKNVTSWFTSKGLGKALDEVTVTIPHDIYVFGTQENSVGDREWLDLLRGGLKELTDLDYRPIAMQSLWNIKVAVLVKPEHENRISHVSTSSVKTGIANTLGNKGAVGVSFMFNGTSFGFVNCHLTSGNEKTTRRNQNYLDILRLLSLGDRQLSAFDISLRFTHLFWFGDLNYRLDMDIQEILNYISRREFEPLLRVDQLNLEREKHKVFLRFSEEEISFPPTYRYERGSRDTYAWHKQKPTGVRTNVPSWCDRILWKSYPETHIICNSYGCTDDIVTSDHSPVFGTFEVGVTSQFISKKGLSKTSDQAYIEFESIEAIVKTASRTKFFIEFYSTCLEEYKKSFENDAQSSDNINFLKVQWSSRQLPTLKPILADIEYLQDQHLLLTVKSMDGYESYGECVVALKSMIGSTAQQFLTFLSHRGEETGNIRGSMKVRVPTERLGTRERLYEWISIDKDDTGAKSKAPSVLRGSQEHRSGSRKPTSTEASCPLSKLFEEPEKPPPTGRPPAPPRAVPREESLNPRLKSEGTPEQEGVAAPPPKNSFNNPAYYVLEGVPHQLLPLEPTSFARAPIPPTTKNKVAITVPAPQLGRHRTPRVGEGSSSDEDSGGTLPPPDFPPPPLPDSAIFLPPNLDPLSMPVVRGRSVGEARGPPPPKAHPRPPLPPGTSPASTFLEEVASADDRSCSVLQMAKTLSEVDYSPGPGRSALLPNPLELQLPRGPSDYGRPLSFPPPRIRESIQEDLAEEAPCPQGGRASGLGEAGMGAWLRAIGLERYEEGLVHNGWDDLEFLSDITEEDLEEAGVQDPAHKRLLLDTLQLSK

[7] = molecular target: Bombesin receptor subtype-3 (Rattus norvegicus, UniProt Q8K418)
[8] = molecular target: Glutamate receptor ionotropic, NMDA 1 (Rattus norvegicus, UniProt P35439)
Glutamate receptor 3 = Glutamate receptor 3 (Rattus norvegicus, UniProt P19492)
Angiotensinogen = Angiotensinogen (Rattus norvegicus, UniProt P01015)
[9] = molecular target: Beta-2 adrenergic receptor (Rattus norvegicus, UniProt P10608)
Chain of Beta-2 adrenergic receptor (P10608 whole entry): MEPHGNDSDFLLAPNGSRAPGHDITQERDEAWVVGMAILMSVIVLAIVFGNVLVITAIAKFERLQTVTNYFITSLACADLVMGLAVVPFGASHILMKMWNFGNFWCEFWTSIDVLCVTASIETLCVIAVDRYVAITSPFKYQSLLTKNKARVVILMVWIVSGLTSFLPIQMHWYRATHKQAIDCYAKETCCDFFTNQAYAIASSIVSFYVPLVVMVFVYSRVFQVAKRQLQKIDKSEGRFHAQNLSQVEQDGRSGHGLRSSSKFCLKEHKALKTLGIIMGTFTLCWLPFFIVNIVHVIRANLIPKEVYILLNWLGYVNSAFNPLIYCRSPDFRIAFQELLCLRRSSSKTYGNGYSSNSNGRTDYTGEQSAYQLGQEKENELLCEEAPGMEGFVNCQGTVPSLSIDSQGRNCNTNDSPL

[10] = molecular target: Chloride channel protein 1 (Rattus norvegicus, UniProt P35524)
[11] = molecular target: 5-hydroxytryptamine receptor 2A (Rattus norvegicus, UniProt P14842)
Natriuretic peptides A = Natriuretic peptides A (Rattus norvegicus, UniProt P01161)
[12] = molecular target: Gamma-aminobutyric acid receptor subunit alpha-1 (Rattus norvegicus, UniProt P62813)
[13] = molecular target: Glutamate receptor ionotropic, kainate 1 (Rattus norvegicus, UniProt P22756)
[14] = molecular target: Sigma non-opioid intracellular receptor 1 (Rattus norvegicus, UniProt Q9R0C9)
[15] = molecular target: Voltage-dependent L-type calcium channel subunit alpha-1C (Rattus norvegicus, UniProt P22002)
[16] = molecular target: Potassium voltage-gated channel subfamily H member 8 (Rattus norvegicus, UniProt Q9QWS8)
Chain of Potassium voltage-gated channel subfamily H member 8 (Q9QWS8 whole entry): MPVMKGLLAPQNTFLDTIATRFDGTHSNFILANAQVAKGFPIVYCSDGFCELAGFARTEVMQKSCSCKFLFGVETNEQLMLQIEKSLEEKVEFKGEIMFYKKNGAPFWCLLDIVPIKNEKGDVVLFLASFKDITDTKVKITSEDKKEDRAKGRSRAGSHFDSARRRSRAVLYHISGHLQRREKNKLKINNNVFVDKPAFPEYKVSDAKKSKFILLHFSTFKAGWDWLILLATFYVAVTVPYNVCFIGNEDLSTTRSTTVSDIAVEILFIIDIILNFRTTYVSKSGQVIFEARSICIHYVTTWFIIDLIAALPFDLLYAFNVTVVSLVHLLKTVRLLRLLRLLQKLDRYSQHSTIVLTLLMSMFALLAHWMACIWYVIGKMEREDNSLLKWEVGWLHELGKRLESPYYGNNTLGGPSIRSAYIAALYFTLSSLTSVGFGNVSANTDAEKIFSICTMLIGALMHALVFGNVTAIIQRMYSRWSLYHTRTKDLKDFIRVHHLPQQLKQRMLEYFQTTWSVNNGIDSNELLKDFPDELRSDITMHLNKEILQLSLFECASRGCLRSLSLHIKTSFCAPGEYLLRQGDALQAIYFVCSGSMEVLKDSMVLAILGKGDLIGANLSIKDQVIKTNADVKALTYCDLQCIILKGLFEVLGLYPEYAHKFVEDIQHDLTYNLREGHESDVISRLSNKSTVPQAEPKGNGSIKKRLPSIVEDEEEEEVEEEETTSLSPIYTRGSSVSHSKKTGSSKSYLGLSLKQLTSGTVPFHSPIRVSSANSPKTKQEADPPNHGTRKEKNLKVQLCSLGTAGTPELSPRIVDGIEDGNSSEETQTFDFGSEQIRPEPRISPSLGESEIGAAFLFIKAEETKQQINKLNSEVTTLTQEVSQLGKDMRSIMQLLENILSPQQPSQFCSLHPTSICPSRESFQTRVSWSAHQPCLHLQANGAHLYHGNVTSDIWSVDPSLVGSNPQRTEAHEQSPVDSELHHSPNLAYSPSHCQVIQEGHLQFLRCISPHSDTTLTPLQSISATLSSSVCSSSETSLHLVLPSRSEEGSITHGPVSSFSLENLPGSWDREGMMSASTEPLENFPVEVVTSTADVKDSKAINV

[17] = molecular target: Pro-epidermal growth factor (Rattus norvegicus, UniProt P07522)
Beta-nerve growth factor = Beta-nerve growth factor (Rattus norvegicus, UniProt P25427)
[18] = molecular target: Alpha-1A adrenergic receptor (Rattus norvegicus, UniProt P43140)
Adenosine kinase = Adenosine kinase (Rattus norvegicus, UniProt Q64640)
[19] = molecular target: Gamma-aminobutyric acid (GABA) B receptor 1 (Rattus norvegicus, UniProt Q6MFX8)
Chain of Gamma-aminobutyric acid (GABA) B receptor 1 (Q6MFX8 whole entry): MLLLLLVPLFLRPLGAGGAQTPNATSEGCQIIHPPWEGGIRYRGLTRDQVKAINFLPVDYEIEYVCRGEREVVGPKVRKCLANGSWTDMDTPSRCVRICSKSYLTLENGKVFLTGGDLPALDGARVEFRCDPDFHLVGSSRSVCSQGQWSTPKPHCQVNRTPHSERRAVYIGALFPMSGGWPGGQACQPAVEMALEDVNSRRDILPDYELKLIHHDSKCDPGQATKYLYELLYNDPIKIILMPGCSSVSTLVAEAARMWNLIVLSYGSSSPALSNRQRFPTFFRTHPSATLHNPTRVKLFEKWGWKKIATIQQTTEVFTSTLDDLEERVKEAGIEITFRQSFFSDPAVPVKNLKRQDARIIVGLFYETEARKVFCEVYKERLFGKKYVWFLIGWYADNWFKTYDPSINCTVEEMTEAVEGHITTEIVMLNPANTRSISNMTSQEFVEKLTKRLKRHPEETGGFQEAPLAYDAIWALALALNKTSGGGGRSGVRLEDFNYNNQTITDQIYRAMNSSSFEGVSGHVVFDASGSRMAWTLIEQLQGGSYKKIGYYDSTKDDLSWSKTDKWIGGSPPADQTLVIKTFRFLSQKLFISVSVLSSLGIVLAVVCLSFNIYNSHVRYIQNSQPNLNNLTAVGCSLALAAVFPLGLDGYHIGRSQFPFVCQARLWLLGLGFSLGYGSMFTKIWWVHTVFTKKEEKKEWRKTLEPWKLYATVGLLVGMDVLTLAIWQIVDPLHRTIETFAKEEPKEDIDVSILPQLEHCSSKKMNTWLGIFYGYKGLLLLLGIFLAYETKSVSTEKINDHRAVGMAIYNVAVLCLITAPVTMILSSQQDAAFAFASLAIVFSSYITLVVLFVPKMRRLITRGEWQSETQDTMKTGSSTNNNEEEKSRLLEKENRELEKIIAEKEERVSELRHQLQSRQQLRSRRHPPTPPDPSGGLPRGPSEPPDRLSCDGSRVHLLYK

Interleukin-18 = Interleukin-18 (Rattus norvegicus, UniProt P97636)
VIP peptides = VIP peptides (Rattus norvegicus, UniProt P01283)

Chain of Alpha-2C adrenergic receptor (P22086 whole entry): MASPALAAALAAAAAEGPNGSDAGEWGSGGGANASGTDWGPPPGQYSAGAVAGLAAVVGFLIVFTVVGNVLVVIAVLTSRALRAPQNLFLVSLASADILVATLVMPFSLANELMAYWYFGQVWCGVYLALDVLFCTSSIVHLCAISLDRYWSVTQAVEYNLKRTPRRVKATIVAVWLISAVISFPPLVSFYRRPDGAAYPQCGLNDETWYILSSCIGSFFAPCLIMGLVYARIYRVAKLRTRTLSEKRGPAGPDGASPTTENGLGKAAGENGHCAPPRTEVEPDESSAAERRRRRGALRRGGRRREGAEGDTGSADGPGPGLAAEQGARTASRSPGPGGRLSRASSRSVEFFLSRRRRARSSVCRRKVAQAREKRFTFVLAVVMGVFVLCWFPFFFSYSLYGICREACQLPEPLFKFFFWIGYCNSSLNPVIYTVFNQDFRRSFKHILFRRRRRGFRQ

Oc1cc2c(cc1O)[C@@H]1c3ccccc3CN[C@@H]1CC2 [(+/-)-trans-10,11-dihydroxy-5,6,6a,7,8,12b-hexahydrobenzo[a]phenanthridine]
Ki [1]: 0.23 µM and 1 µM | Ki (Adenylate cyclase type 3): > 10 µM | Ki [2]: > 10 µM | Ki [3]: > 10 µM | Ki (5'-nucleotidase): > 10 µM | Ki [4]: > 10 µM | Ki (Protachykinin-1): > 10 µM | Ki [5]: > 10 µM | Ki (Somatostatin): > 10 µM | Ki [6]: > 10 µM | Ki [7]: > 10 µM | Ki [8]: > 10 µM | Ki (Glutamate receptor 3): > 10 µM | Ki (Angiotensinogen): > 10 µM | Ki [9]: > 10 µM | Ki [10]: > 10 µM | Ki [11]: > 10 µM | Ki (Natriuretic peptides A): > 10 µM | Ki [12]: > 10 µM | Ki [13]: > 10 µM | Ki [14]: > 10 µM | Ki [15]: > 10 µM | Ki [16]: > 10 µM | Ki [17]: > 10 µM | Ki (Beta-nerve growth factor): > 10 µM | Ki [18]: > 10 µM | Ki (Adenosine kinase): > 10 µM | Ki [19]: > 10 µM | Ki (Interleukin-18): > 10 µM | Ki (VIP peptides): > 10 µM
